Test results from ChEMBL document CHEMBL4376903, “Cereblon Based Immunomodulatory Therapeutics” (ACS Med Chem Lett, 2020).

Key:
Assay type in all cases: cell-based
[1] = target: T1, Protein cereblon/Estrogen receptor (Homo sapiens, UniProt P03372+Q96SW2); assay: Protac activity at cereblon/ERalpha in human MCF7 cells assessed as induction of ERalpha protein degradation by Western blot analysis
Target sequence in this assay (Q96SW2 whole entry, one chain of several): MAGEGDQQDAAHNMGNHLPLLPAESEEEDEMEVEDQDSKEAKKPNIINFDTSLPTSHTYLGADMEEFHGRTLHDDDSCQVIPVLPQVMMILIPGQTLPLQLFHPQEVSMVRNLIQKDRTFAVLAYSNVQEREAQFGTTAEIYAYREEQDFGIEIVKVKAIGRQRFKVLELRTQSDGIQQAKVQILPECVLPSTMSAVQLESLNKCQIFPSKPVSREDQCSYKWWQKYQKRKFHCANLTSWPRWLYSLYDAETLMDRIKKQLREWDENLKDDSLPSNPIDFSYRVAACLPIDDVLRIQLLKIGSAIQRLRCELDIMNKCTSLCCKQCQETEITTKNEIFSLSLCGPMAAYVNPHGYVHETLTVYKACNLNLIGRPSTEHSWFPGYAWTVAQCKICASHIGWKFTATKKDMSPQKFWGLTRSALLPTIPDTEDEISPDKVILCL

Estrogen receptor = target: T2, Estrogen receptor (Homo sapiens, UniProt P03372); assay: Inhibition of ERalpha in human T47D cells by ERE-driven luciferase reporter gene assay based target engagement assay
T2 sequence (P03372 whole entry): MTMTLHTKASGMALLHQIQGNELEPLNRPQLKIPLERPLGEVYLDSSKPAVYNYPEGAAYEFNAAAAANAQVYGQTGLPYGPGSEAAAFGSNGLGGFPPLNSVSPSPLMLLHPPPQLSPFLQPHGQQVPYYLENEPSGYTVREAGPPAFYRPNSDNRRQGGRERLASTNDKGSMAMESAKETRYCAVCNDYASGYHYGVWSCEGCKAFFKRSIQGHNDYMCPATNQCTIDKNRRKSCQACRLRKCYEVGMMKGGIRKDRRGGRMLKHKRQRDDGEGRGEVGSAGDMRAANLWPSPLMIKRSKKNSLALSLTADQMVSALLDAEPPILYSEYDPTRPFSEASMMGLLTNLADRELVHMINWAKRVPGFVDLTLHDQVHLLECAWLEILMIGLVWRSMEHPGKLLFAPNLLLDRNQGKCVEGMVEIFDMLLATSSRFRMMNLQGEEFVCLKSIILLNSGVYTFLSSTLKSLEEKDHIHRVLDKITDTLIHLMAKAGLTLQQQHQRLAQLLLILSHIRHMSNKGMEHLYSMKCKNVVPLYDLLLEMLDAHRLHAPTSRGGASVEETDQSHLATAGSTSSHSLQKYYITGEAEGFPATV

[2] = target: T1, Protein cereblon/Estrogen receptor; assay: Protac activity at cereblon/ERalpha in human MCF7 cells assessed as induction of ERalpha protein degradation by Western blot analysis relative to control
Target sequence in this assay (Q96SW2 whole entry, looked up, one chain of several): as the sequence (Q96SW2 whole entry, one chain of several) above

| SMILES | DC50 [1] | IC50 (Estrogen receptor) | Emax [2] |
| --- | --- | --- | --- |
| COc1cc(N2CCN(CCCCCOc3ccc([C@@H]4c5ccc(O)cc5CC[C@@H]4c4ccccc4)cc3)CC2)cc2c1C(=O)N([C@@H]1CCC(=O)NC1=O)C2 | < 1 nM | 0.37 nM | > 75% |
| COc1cc(N2CCN(CCC3CCN(c4ccc([C@@H]5c6ccc(O)cc6CC[C@@H]5c5ccccc5)cc4F)CC3)CC2)cc2c1C(=O)N(C1CCC(=O)NC1=O)C2 (some centres undefined) | 1 to 10 nM | 0.7 nM | > 75% |
| COc1cc(N2CCN(CCC3(O)CC(Oc4ccc([C@@H]5c6ccc(O)cc6CC[C@@H]5c5ccccc5)cc4)C3)CC2)cc2c1C(=O)N(C1CCC(=O)NC1=O)C2 (some centres undefined) | < 1 nM | 0.3 nM | > 75% |
| COc1cc(N2CCN(CCCCCOc3ccc([C@@H]4c5ccc(O)cc5CC[C@@H]4c4ccccc4)cc3)CC2)cc2c1C(=O)N(C1CCC(=O)NC1=O)C2 (some centres undefined) | 1 to 10 nM | 0.79 nM | > 75% |

The next lines start with the values.

| DC50 [1] | IC50 (Estrogen receptor) | Emax [2] | SMILES |
| --- | --- | --- | --- |
| < 1 nM | 0.82 nM | 50 to 75% | COc1cc(N2CCN(C3CC4CC(Oc5ccc([C@@H]6c7ccc(O)cc7CC[C@@H]6c6ccc(F)cc6)cc5)CC4C3)CC2)cc2c1C(=O)N(C1CCC(=O)NC1=O)C2 (some centres undefined) |
| < 1 nM | 0.7 nM | > 75% | COc1cc(N2CCN(CC(=O)C3CC(Oc4ccc([C@@H]5c6ccc(O)cc6CC[C@@H]5c5ccccc5)cc4)C3)CC2)cc2c1C(=O)N(C1CCC(=O)NC1=O)C2 (some centres undefined) |
| < 1 nM | 0.5 nM | 50 to 75% | O=C1CCC(N2Cc3cc(N4CCN(CCC5(O)CC(Oc6ccc([C@@H]7c8ccc(O)cc8CC[C@@H]7c7ccccc7)cc6)C5)CC4)cc(OC(F)F)c3C2=O)C(=O)N1 (some centres undefined) |
| < 1 nM | 0.49 nM | > 75% | COc1cc(N2CCN(CCCCCOc3ccc([C@@H]4c5ccc(O)cc5CC[C@@H]4c4ccccc4)cc3)CC2)cc2c1C(=O)N([C@H]1CCC(=O)NC1=O)C2 |
